Assay results reported in patent US20240058283A1, “THE MODE OF ACTION OF N-MeDCPA ON TRPC CHANNELS” (West Virginia University Board of Governors on Behalf of …, priority 2022, published 2024).

Target: T1, TRPC7 (Homo sapiens, UniProt Q9HCX4)
T1 construct: expressed in transfected cells; host or cells: HEK293 (transient transfection)
T1 sequence (Q9HCX4 1-862): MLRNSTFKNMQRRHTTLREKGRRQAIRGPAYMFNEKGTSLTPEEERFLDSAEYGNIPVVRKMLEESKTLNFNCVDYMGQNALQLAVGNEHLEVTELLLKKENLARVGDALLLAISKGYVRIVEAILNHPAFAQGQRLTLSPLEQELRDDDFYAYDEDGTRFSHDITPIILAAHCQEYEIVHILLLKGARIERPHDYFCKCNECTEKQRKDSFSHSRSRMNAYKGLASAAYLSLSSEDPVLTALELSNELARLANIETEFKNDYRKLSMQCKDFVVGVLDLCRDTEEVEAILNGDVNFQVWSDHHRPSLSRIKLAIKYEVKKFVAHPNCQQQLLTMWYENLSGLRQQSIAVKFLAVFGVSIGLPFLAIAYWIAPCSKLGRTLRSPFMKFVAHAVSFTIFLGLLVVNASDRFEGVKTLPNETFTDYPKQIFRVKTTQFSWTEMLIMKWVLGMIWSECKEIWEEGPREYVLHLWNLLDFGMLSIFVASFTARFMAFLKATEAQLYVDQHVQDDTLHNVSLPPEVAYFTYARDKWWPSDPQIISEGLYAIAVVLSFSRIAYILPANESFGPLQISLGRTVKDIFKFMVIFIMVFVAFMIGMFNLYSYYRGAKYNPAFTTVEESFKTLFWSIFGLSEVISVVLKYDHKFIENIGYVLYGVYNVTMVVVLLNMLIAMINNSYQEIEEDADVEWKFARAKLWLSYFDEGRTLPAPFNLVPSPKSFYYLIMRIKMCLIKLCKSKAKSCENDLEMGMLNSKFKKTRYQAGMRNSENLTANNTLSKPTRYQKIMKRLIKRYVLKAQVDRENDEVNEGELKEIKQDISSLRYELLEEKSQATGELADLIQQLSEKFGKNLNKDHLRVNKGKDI
Assay: Carbachol (Cch)-induced Sr2+ entry in Fura2-loaded HEK293 cells overexpressing TRPC7
Assay type: cell-based
Details: versus DAG-mediated activation, FIG. 2D, E
From the text: Inhibition of GPCR-mediated TRPC activation. Since TRPC4 and TRPC5 are not activated by DAG, we utilized carbachol (Cch)-induced Sr^2+ entry to determine their sensitivity to ELP-004. Since Cch drives ER Ca^2+ release, Cch-induced Ca^2+ entry includes both store-operated and TRPC-mediated components. To specifically measure ion entry through TRPC channels, we took advantage of the lack of ion selectivity of TRPC channel and substituted Sr^2+ for Ca^2+ as previously described^7. As expected, Cch stimulated rapid ER Ca^2+ release immediately upon addition in both TRPC4- and TRPC5-expressing cells (FIG. 2A,B). The subsequent addition of Sr^2+ (3 mM) lead to a significant increase in Fura ratio with a substantially larger response in TRPC5-expressing than TRPC4-expressing cells. […] Therefore, we assessed inhibition of TRPC7 by ELP-004 using the Cch Sr^2+ assay (FIG. 2D, E). […]
TRPC activity assay—Cells grown on glass coverslips were incubated in a cation-safe buffer (107 mM NaCl, 7.2 mM KCl, 1.2 mM MgCl2, 11.5 mM Glucose, 20 mM HEPES-NaOH, 1 mM CaCl2), pH 7.2) and loaded with Fura2-acetoxymethylester (Fura2-AM; 2 μM) for 30 min at 24° C. as previously described^10,11. […] Ca^2+/Sr^2+ measurements were taken using a Leica DMI 6000B fluorescence microscope controlled by Slidebook software (Intelligent Imaging Innovations, Denver, CO). […]

CCC(=O)N(C)c1ccc(Cl)c(Cl)c1 [ELP-004, N-(3,4-dichlorophenyl)-N-methylpropanamide]
increase in sensitivity to ELP-004 in the Cch Sr2+ assay: 3 order of magnitude
